The record followed here is patent US20070021509A1, “Phosphate transport inhibitors” (priority 2001, published 2007).

The subject of one assay is phosphate uptake by rabbit intestinal Brush Border Membrane Vesicles (BBMV). Description: 33PO4 uptake in rabbit intestinal BBMV (HTS), phosphate transporter inhibition in vitro. The following applies: Table 1, phosphate uptake, read-out: IC50. Type of assay: biochemical. In a few lines:
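BBMV from duodenal mucosa of male New Zealand White rabbits, diluted to about 0.5-2.0 mg/mL protein. Uptake buffers carried 33PO4 at 200,000 CPM/19 μL. Controls: Na uptake buffer (max), plus 100 μM KH2PO4 pH 7.4 (mid), K uptake buffer (min).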
For `O=C(O)c1cc(Br)ccc1NS(=O)(=O)c1cccc2ccccc12` [Compound 19], the IC50 fell in the range of 101 to 500 µM.
Same read-out and setting: to `O=C(O)c1cc(Br)ccc1NS(=O)(=O)c1ccccc1[N+](=O)[O-]` [Compound 48] belongs > 1500 µM; to `O=C(O)c1cc(Br)ccc1NS(=O)(=O)c1ccc(OC(F)(F)F)cc1` [Compound 41], > 1500 µM; to `O=C(O)c1cc(Br)ccc1NS(=O)(=O)c1ccc(Cl)cc1` [Compound 43], > 1500 µM.

The assay is the same for the next values; noted with them: Table 2, phosphate uptake, read-out: IC50.
Take `O=C(Nc1ccc(Cl)c(Cl)c1)c1cc(Br)ccc1NS(=O)(=O)c1cccc([N+](=O)[O-])c1` [Compound 125]: the IC50 lay in the range of 101 to 500 µM.
Still for that read-out and setting: to `O=C(NCc1ccccc1OC(F)(F)F)c1cc(Br)ccc1NS(=O)(=O)c1ccc(OC(F)(F)F)cc1` [Compound 61] belongs 51 to 100 µM.
Same read-out and setting: with `O=C(Nc1ccc(Cl)cc1Cl)c1cc(Br)ccc1NS(=O)(=O)c1ccc(Cl)c([N+](=O)[O-])c1` [Compound 120] the figure was > 1500 µM.
The same measure, in the same setting: with `CSc1ccc(NC(=O)c2cc(Br)ccc2NS(=O)(=O)c2ccc(OC(F)(F)F)cc2)cc1` [Compound 65] the figure was 51 to 100 µM; with `O=C(Nc1ccccc1Cl)c1cc(Br)ccc1NS(=O)(=O)c1ccc(OC(F)(F)F)cc1` [Compound 50], < 50 µM.
On to `O=C(Nc1ccccc1Cl)c1cc(Br)ccc1NS(=O)(=O)c1ccc(Cl)c([N+](=O)[O-])c1` [Compound 118], for which the IC50 lay within 101 to 500 µM.
On the same count and under the same terms, with `COc1ccccc1NC(=O)c1cc(Br)ccc1NS(=O)(=O)c1ccc(OC)c([N+](=O)[O-])c1` [Compound 106] the figure was 101 to 500 µM; with `O=C(Nc1ccc(Br)cc1)c1cc(Br)ccc1NS(=O)(=O)c1ccc(OC(F)(F)F)cc1` [Compound 51], < 50 µM.
The same measure, in the same setting: with `O=C(Nc1ccc(-c2ccccc2)cc1)c1cc(Br)ccc1NS(=O)(=O)c1ccc(OC(F)(F)F)cc1` [Compound 73] the figure was 101 to 500 µM.
The same measure, in the same setting: to `Cc1ccccc1NC(=O)c1cc(Br)ccc1NS(=O)(=O)c1ccc(Cl)c([N+](=O)[O-])c1` [Compound 121] belongs > 1500 µM.
For `O=C(Nc1ccc(Oc2ccccc2)cc1)c1cc(Br)ccc1NS(=O)(=O)c1ccc(OC(F)(F)F)cc1` [Compound 74], the IC50 was 101 to 500 µM.
Same read-out and setting: with `COc1ccc(S(=O)(=O)Nc2ccc(Br)cc2C(=O)Nc2cccc(Br)c2)cc1[N+](=O)[O-]` [Compound 103] the figure was 51 to 100 µM; with `O=C(NCc1ccccc1F)c1cc(Br)ccc1NS(=O)(=O)c1ccc(OC(F)(F)F)cc1` [Compound 70], 101 to 500 µM; with `COc1ccc(S(=O)(=O)Nc2ccc(Br)cc2C(=O)Nc2ccccc2C(=O)O)cc1[N+](=O)[O-]` [Compound 107], 101 to 500 µM.
Still for that read-out and setting: with `COc1ccc(S(=O)(=O)Nc2ccc(Br)cc2C(=O)Nc2cccc(Cl)c2)cc1[N+](=O)[O-]` [Compound 101] the figure was 51 to 100 µM.

Staying with this assay, now noted: Table 3, 100 μM compound.
With `O=S(=O)(c1ccccc1)n1ccc2ccccc21` [Compound 135], the “% Inhib. At 100 μM” value is given as 76%.
Still for that read-out and setting: with `Cc1ccc(S(=O)(=O)N2CCC(=O)c3ccc(Cl)cc32)cc1` [Compound 152] the figure was 54%.
The same measure, in the same setting: to `Cc1ccc2c(c1)CCCN2S(=O)(=O)c1ccc(C(C)(C)C)cc1` [Compound 141] belongs 68%.

Staying with this assay, now noted: Table 4, phosphate uptake, read-out: IC50.
On to `N#Cc1cccc(NC(=O)Nc2ccc(Br)cc2P(=O)(O)O)c1` [Compound 197], for which the IC50 lay within 501 to 1000 µM.
For the compound `O=C(Nc1cc(Cl)c(Cl)cc1Cl)Nc1ccc(Br)cc1P(=O)(O)O` [Compound 193], the IC50 fell in the range of 101 to 500 µM.
Still for that read-out and setting: with `O=C(Nc1cccc(Cl)c1)Nc1ccc(Br)cc1P(=O)(O)O` [Compound 195] the figure was 501 to 1000 µM.
Still for that read-out and setting: to `Cc1ccc(NC(=O)Nc2ccc(Br)cc2P(=O)(O)O)cc1` [Compound 207] belongs 1000 to 1500 µM.
`O=C(Nc1cccc(C(F)(F)F)c1)Nc1ccc(Br)cc1P(=O)(O)O` [Compound 192]: the IC50 fell in the range of 101 to 500 µM.
Still for that read-out and setting: to `O=C(Nc1ccc(Br)cc1P(=O)(O)O)Nc1c(F)cccc1F` [Compound 204] belongs 1000 to 1500 µM; to `O=C(Nc1ccc(OC(F)(F)F)cc1)Nc1ccc(Br)cc1P(=O)(O)O` [Compound 177], < 50 µM.

The same assay, now with this note: Table 10, phosphate uptake, read-out: IC50.
For the compound `O=C(Nc1ccc(Oc2ccc3ccccc3c2Br)c(Cl)c1)c1cc(Br)cc(Br)c1O` [Compound 254], the IC50 was in the range of 101 to 500 µM.
Take `CCOP(=O)(OCC)c1cc(Br)ccc1NC(=O)c1ccc(OC(F)(F)F)cc1` [Compound 272]: the IC50 was > 1500 µM.
The same measure, in the same setting: to `CCOP(=O)(OCC)c1cc(Br)ccc1NC(=O)c1ccc(OC(F)(F)F)cc1` [Compound 250] belongs < 50 µM; to `CCOP(=O)(OCC)c1cc(Br)ccc1NC(=O)c1ccc(F)cc1F` [Compound 260], 101 to 500 µM; to `O=C(Nc1ccc(Br)cc1P(=O)(O)O)c1ccc(OC(F)(F)F)cc1` [Compound 268], > 1500 µM.

The same assay, now with this note: Table 12, 100 μM compound.
Regarding `O=S(=O)(Cc1c(Cl)cccc1Cl)c1cc(C(F)(F)F)cc(C(F)(F)F)c1` [Compound 283], the “% Inhib. at 100 μM” value worked out at 51%.
For the compound `Cc1cccc(CS(=O)(=O)c2ccc(Cl)cc2)c1F` [Compound 282], the “% Inhib. at 100 μM” value amounted to 53%.

Still in this assay, the particulars now being: Table 13, phosphate uptake, read-out: IC50.
Take `Nc1ccc(/C=C/c2ccc(N)cc2)cc1` [Compound 308]: the half-maximal inhibitory concentration (IC50) was > 1500 µM.

Another assay concerns sodium-dependent phosphate uptake into isolated rabbit intestinal rings. Description: Ex vivo 33P uptake into isolated rabbit intestinal rings. Type of assay: cell-based. The arrangement: concentration or dose not given beside the values. The following applies: Table 14, 15-minute incubation. The protocol: For the ex vivo assay, ^33P uptake into isolated rabbit intestinal rings was measured using a modification of the method described by Crane and Mandelstam [Robert K. Crane and Paul Mandelstam “The active transport of sugars by various preparations of hamster intestine” Biochim. Biophys. Acta 45: 460-476, 1960; the contents of which are incorporated herein by reference]. Male New Zealand rabbits 2-3 kg in weight were aeuthinized by an i.v. injection of Fatal Pluse®. A midline laparotomy was performed and the duodenum from the pyloric junction to the ligament of Trietz isolated and excised. Segments of bowel were everted, cut into 2-4 mm ring-like pieces and placed into a modified Hepes-Buffered Ringer's solution in which Na^+ had been iso-osmotically replaced with N-methyl-D-glucamine. To measure phosphate uptake, six rings were incubated in a 50 ml conical tube containing a 10 ml volume of Ringer's solution, with or without Na^+, bubbled with 100% O2 and maintained at 37° C. 0.5 uCi/ml ^33P was then incubated with the rings for a 15-minute period, the tissue harvested, rinsed, blotted dry and weighed. Tissues were then solublized by digesting them in a 5 ml volume of Solvable® tissue solubilizer overnight at 50° C. and ^33P levels determined by scintillation counting. Sodium-dependent uptake of ^33P was calculated by determining the difference in uptake between rings incubated in the presence and absence of Na^+ in the Hepes-Buffered Ringer's solution. Results are reported as the percentage inhibition of phosphate and glucose uptake, respectively.
Turning to `O=C(NCc1ccccc1OC(F)(F)F)c1cc(Br)ccc1NS(=O)(=O)c1ccc(Cl)cc1` [Example 72, 5-Bromo-2-(4-chloro-benzenesulfonylamino)-N-(2-trifluoromethoxy-benzyl)-benzamide], the “% Phosphate Transport Inhibition” value was 24%.
Turning to `COc1ccccc1CNC(=O)c1cc(Br)ccc1NS(=O)(=O)c1ccc(C(F)(F)F)cc1[N+](=O)[O-]` [Example 80, 5-Bromo-N-(2-methoxy-benzyl)-2-(4-trifluoromethyl-2-nitro-benzenesulfonylamino)-benzamide], the “% Phosphate Transport Inhibition” value was determined as 43%.
The same measure, in the same setting: with `O=C(Nc1ccc(Br)cc1)c1cccc(C(F)(F)F)c1` [Example 81, N-(4-Bromo-phenyl)-3-trifluoromethyl-benzamide] the figure was 22%.

Another assay has as its system glucose uptake into isolated rabbit intestinal rings. As to the kind of experiment: Ex vivo glucose uptake into isolated rabbit intestinal rings. Type of assay: cell-based. More on the design: concentration or dose not given beside the values. The following applies: Table 14. The protocol:
For the ex vivo assay, ^33P uptake into isolated rabbit intestinal rings was measured using a modification of the method described by Crane and Mandelstam [Robert K. Crane and Paul Mandelstam “The active transport of sugars by various preparations of hamster intestine” Biochim. Biophys. Acta 45: 460-476, 1960; the contents of which are incorporated herein by reference]. Male New Zealand rabbits 2-3 kg in weight were aeuthinized by an i.v. injection of Fatal Pluse®. A midline laparotomy was performed and the duodenum from the pyloric junction to the ligament of Trietz isolated and excised. Segments of bowel were everted, cut into 2-4 mm ring-like pieces and placed into a modified Hepes-Buffered Ringer's solution in which Na^+ had been iso-osmotically replaced with N-methyl-D-glucamine. […] […] Tissues were then solublized by digesting them in a 5 ml volume of Solvable® tissue solubilizer overnight at 50° C. and ^33P levels determined by scintillation counting. Sodium-dependent uptake of ^33P was calculated by determining the difference in uptake between rings incubated in the presence and absence of Na^+ in the Hepes-Buffered Ringer's solution. Results are reported as the percentage inhibition of phosphate and glucose uptake, respectively.
Consider `O=C(NCc1ccccc1OC(F)(F)F)c1cc(Br)ccc1NS(=O)(=O)c1ccc(Cl)cc1` [Example 72, 5-Bromo-2-(4-chloro-benzenesulfonylamino)-N-(2-trifluoromethoxy-benzyl)-benzamide], for which the “% Glucose Transport Inhibition” value came to 6%.
On the same count and under the same terms, with `COc1ccccc1CNC(=O)c1cc(Br)ccc1NS(=O)(=O)c1ccc(C(F)(F)F)cc1[N+](=O)[O-]` [Example 80, 5-Bromo-N-(2-methoxy-benzyl)-2-(4-trifluoromethyl-2-nitro-benzenesulfonylamino)-benzamide] the figure was 39%.
Same read-out and setting: to `O=C(Nc1ccc(Br)cc1)c1cccc(C(F)(F)F)c1` [Example 81, N-(4-Bromo-phenyl)-3-trifluoromethyl-benzamide] belongs 13%.

The term IC50 denotes the concentration that gives 50% inhibition.
